Like-named read-outs stand apart in the source and are kept apart here. Ends that are not written are not given here. Peptide text beside a SMILES is read from it.
Key:
SH-SY5Y cells = experiment: Cell viability, MTT assay; assay type: cell-based, human; details: basal conditions, highest concentration 100 µM, 24 h; data not shown
Procedure: Human neuroblastoma SH-SY5Y cells were obtained from the American Type Culture Collection (ATCC, […], Rockville, MD, USA) and grown in RPMI-1640 medium supplemented with 10% FBS, 2 mM L-glutamine, 1 mM sodium pyruvate, 1 mM NEAA, and 50 μg/mL gentamicin in a humidified incubator containing 5% CO2 and 95% air at 37 °C.
The effects of pajuro-derived peptides on cell viability were determined using the MTT assay, following the protocol previously described by Palma-Albino et al.. SH-SY5Y cells were seeded (2 × 10^4 cells/well) onto 96-well plates in complete medium with 1% FBS and incubated at 37 °C for 16 h. After discarding the culture medium, the peptide sample was added (at concentration of 10, 25, and 100 µM), and the plate was incubated for 24 h. Upon removing the supernatant, a MTT solution (2 mg/mL) was added, and the plate was incubated for 60 min at 37 °C. After this time, the supernatant was discarded, and the formazan crystals were dissolved in dimetilsulfoxide (DMSO). The absorbance was measured at 570 nm in the Infinite M200 Pro plate reader (Tecan Group AG). Three independent runs were performed for each sample. The results were expressed as percentage of the control, considered as 100%.

ACE from rabbit lung = biological target: T1, ACE from rabbit lung (Oryctolagus cuniculus, UniProt P12822); experiment: ACE inhibitory activity (HHL substrate); assay type: biochemical; details: n.d. = activity not detected; mean ± SD; read-out: ACE Inhibition (IC50)
T1 construct: ACE from rabbit lung; purchased Sigma-Aldrich; host or cells: rabbit lung tissue
T1 sequence (P12822 34-1310): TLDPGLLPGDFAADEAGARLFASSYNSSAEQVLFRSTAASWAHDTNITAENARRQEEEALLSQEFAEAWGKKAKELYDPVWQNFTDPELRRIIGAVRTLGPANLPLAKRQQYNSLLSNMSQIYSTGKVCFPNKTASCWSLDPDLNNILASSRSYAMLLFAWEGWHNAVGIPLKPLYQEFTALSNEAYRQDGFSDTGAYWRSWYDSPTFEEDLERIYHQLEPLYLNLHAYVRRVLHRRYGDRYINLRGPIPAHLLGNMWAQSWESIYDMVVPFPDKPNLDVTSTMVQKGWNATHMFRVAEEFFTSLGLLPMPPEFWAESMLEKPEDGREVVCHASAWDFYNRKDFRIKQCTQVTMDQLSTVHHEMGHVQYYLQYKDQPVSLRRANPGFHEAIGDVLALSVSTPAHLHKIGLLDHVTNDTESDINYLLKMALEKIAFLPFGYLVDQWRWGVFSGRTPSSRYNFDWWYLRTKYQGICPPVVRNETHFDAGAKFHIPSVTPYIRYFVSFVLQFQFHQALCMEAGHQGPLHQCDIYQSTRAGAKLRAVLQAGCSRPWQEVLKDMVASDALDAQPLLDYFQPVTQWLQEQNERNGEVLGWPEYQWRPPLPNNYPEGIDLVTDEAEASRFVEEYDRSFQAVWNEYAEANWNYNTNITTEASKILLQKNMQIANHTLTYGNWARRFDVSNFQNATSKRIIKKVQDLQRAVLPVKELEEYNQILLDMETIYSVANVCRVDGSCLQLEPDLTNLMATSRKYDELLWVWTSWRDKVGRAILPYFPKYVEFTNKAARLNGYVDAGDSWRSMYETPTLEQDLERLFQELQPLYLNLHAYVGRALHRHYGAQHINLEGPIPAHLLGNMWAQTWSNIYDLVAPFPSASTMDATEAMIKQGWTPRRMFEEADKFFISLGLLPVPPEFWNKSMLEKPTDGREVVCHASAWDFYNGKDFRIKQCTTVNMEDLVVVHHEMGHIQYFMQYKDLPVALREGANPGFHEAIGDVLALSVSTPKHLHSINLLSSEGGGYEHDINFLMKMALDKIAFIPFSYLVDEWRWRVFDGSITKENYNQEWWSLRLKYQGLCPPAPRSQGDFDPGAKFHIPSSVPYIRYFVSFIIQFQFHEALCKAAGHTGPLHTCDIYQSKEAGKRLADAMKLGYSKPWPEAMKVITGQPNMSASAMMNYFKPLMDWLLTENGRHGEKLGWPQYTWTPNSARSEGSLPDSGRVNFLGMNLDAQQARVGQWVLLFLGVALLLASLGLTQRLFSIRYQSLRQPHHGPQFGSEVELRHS
Procedure: The in vitro ACE inhibitory activity of peptides was measured following the methodology described by Hayakari et al., with some modifications. […] It was incubated at 37 °C for 60 min. […] Three independent runs were performed for each sample.

DPP-IV [1] = biological target: T2, DPP-IV (Homo sapiens, UniProt P27487); experiment: DPP-IV inhibitory activity (Inhibitor Screening Kit MAK203); assay type: biochemical; details: n.d. = activity not detected; mean ± SD; read-out: DPP-IV Inhibition (IC50)
T2 construct: purchased Sigma-Aldrich MAK203
Procedure: The DPP-IV inhibitory activity was determined using the DPP-IV Inhibitor Screening Kit MAK203, according to the manufacturer’s instructions. […] After this time, the fluorescence was measured each 2 min at λexcitation and λemission of 360 and 460 nm, respectively, in the Infinite M200 Pro plate reader (Tecan Group AG). Three independent runs were performed for each sample. The results were expressed as IC50 value.

[2] = tested on: α-glucosidase from Saccharomyces cerevisiae; experiment: α-glucosidase inhibitory activity; assay type: biochemical; details: control acarbose at 10 mM
Procedure: The α-glucosidase inhibitory activity was determined as previously reported, with some modifications. […] Three independent runs were performed for each sample. The results were expressed as percentage of the negative control, considered as 100%.

[3] = tested on: T3, α-amylase type VI-B from porcine pancreas; experiment: α-amylase inhibition assay; assay type: biochemical; details: control acarbose at 10 mM
T3 construct: α-amylase type VI-B from porcine pancreas; purchased Sigma-Aldrich; host or cells: porcine pancreas tissue
Procedure: The α-amylase inhibition assay was carried out following the methods described by Subramanian et al. and Kumar et al., with some modifications. Then, 200 µL of mixture, containing α-amylase (800 mU), 0.125% starch, and peptide (100 µM) or standard (at different concentrations) in 0.1 M phosphate buffer (pH 6.9), was incubated at 37 °C for 30 min. After adding 100 µL of a solution containing 1% 3,5-dinitrosalicylic acid and 30% sodium potassium tartrate in 0.4 M NaOH, shaking, and incubating at 100 °C for 10 min, the absorbance was measured at 540 nm in an Infinite M200 Pro plate reader (Tecan Group AG). Three independent runs were performed for each sample. The results were expressed as percentage of the negative control, considered as 100%.

[4] = tested on: T4, porcine pancreatic lipase type II; experiment: Pancreatic lipase inhibitory activity; assay type: biochemical; details: control orlistat at 0.5 µM
T4 construct: porcine pancreatic lipase type II; purchased Sigma-Aldrich; host or cells: porcine pancreas tissue
Procedure: The pancreatic lipase inhibitory activity was determined following the protocols previously described, with some modifications. […] Three independent runs were performed for each sample. The results were expressed as percentage of the negative control, considered as 100%.

α-glucosidase = details: ref Vilcacundo et al. [46]; read-out: α-glucosidase inhibitory capacity (IC50); cited from earlier work
DPP-IV [5] = biological target: T2, DPP-IV; details: literature value; cited from earlier work

T2 sequence (P27487 whole entry): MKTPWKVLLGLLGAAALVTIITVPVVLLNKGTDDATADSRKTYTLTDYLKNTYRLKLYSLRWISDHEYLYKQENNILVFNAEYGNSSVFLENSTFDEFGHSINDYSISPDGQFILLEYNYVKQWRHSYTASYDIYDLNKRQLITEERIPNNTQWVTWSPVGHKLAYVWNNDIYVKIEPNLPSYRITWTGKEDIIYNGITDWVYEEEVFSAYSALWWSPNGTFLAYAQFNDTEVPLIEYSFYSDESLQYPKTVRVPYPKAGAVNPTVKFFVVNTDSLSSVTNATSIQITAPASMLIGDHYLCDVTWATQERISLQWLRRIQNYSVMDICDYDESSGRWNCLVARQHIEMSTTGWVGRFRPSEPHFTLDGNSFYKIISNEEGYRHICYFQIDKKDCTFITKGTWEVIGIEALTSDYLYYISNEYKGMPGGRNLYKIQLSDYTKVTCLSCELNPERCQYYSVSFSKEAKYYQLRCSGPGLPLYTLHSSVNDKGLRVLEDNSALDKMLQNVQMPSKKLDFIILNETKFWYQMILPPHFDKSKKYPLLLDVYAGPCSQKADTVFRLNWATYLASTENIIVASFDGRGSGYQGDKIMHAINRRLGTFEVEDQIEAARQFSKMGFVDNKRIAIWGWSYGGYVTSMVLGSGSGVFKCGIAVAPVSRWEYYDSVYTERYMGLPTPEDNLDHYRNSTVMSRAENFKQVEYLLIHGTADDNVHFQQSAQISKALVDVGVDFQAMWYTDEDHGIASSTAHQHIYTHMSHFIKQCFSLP

| IC50 (ACE from rabbit lung) | IC50 (DPP-IV [1]) | Compound | effect on cell viability (cytotoxicity) (SH-SY5Y cells) | other results |
| --- | --- | --- | --- | --- |
|  |  | C[C@H]1O[C@H](O[C@H]2[C@H](O)[C@@H](O)[C@@H](O[C@H]3[C@H](O)[C@@H](O)C(O)O[C@@H]3CO)O[C@@H]2CO)[C@H](O)[C@@H](O)[C@@H]1N[C@H]1C=C(CO)[C@@H](O)[C@H](O)[C@H]1O (stereo partly shown) [acarbose] |  | α-Glucosidase Inhibition [2]: 62.36 ± 0.54%; α-Amylase Inhibition [3]: 75.05 ± 1.55% |
|  |  | CCCCCCCCCCC[C@@H](C[C@@H]1OC(=O)[C@H]1CCCCCC)OC(=O)[C@H](CC(C)C)NC=O [orlistat] |  | Pancreatic lipase Inhibition [4]: 94.62 ± 0.90% |
|  | 131 ± 2.34 µM | AALWE [AALWE] | None of them, at the highest concentration assayed (100 µM), affected the cell viability |  |
| 82.6 ± 0.58 µM |  | DGLGYY [DGLGYY] | None of them, at the highest concentration assayed (100 µM), affected the cell viability |  |
|  |  | IQAEGGLT |  | IC50 (α-glucosidase): 110 µM |
|  | 214 ± 2.83 µM | MFTGPY [MFTGPY] | None of them, at the highest concentration assayed (100 µM), affected the cell viability |  |
| 50.5 ± 0.95 µM |  | SQLPGW [SQLPGW] | None of them, at the highest concentration assayed (100 µM), affected the cell viability |  |
|  |  | diprotin A |  | IC50 (DPP-IV [5]): 24.7 µM |

| Compound | IC50 (ACE from rabbit lung) | IC50 (DPP-IV [1]) | effect on cell viability (cytotoxicity) (SH-SY5Y cells) | other results |
| --- | --- | --- | --- | --- |
| N[C@@H](Cc1ccc(O)cc1)C(=O)N1CCC[C@H]1C(=O)N[C@@H](CO)C(=O)N[C@@H](Cc1ccc(O)cc1)C(=O)O [YPSY] (H-YPSY-OH; N-terminus and C-terminus assumed) | 115.6 ± 0.26 µM | 32.6 ± 1.6 µM | None of them, at the highest concentration assayed (100 µM), affected the cell viability |  |

From article PMC9686657, “Protection against Oxidative Stress and Metabolic Alterations by Synthetic Peptides Derived from Erythrina edulis Seed Protein” (Antioxidants, 2022)
